Data reported in publication PMC5563523, “Discovery of a ROCK inhibitor, FPND, which prevents cerebral hemorrhage through maintaining vascular integrity by interference with VE-cadherin” (Cell Death Discovery, 2017).

Biological target: ROCK1 (Homo sapiens, UniProt Q13464)
Assay: Z'-LYTE kinase assay with ROCK1 enzyme, peptide substrate and […] ATP
Format: biochemical

Chain of ROCK1 (Q13464 2-1354): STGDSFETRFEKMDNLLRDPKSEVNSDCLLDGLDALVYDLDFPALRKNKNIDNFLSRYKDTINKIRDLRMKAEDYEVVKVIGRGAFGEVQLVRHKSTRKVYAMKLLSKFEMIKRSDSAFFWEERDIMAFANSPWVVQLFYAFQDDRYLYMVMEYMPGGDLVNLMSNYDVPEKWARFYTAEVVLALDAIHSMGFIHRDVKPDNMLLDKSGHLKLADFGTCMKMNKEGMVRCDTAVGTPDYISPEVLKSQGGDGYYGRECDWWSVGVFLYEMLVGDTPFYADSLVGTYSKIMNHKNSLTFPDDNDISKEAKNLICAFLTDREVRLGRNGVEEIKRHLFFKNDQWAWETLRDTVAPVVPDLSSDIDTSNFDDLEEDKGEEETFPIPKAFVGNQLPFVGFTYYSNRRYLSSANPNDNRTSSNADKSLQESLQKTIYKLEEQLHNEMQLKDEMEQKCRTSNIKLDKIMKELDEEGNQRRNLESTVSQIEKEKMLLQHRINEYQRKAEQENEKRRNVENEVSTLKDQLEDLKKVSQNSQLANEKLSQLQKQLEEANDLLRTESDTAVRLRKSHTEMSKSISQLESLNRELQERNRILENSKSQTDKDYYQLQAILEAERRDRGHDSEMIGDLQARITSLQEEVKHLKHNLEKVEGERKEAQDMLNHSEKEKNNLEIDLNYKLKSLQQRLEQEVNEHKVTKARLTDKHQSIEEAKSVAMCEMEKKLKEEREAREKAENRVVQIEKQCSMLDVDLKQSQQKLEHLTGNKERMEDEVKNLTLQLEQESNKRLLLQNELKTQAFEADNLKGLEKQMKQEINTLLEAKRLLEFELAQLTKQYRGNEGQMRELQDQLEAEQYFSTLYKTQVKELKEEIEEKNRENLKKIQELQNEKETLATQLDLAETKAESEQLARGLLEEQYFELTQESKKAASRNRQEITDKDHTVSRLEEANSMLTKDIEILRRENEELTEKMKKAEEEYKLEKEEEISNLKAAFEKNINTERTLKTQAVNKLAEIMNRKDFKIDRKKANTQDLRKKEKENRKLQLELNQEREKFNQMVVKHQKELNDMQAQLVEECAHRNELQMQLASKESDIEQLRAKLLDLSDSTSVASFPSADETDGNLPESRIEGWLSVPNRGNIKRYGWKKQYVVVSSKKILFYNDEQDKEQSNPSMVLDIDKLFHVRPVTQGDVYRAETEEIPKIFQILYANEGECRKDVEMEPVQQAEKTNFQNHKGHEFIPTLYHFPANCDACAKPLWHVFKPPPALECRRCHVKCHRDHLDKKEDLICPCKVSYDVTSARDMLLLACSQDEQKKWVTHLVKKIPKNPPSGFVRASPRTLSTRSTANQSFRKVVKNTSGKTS

- IC50: 11.2 ± 2.2 µM
Structure (SMILES): Nc1nc(CN2CCN(c3ccccc3F)CC2)nc(Nc2cccc3ccccc23)n1 [FPND, 6-[4-(2-fluorophenyl)-1-piperazinyl]methyl-N-1-naphthyl-1,3,5-triazine-2,4-diamine]
